Measured values from patent US11202776B2, “Treatment of gastroparesis with triazaspiro[4.5]decanone” (Millennium Pharmaceuticals, Inc., priority 2017, dated 2021).
Where a name gives a salt, the structure may show the parent alone. Read-outs that look alike come from different tables or passages of the source.

Key:
[1] = Phase I multiple-ascending dose (MAD) pharmacokinetics, BID Days 1-4 and single morning dose Day 5; type: in vivo, human; settings: for Tlast / Cmax / Tmax / half-life / AUC / concentration at 12 h / concentration at 24 h: fasting; for Cav, ss / Cmin / Tmin / AI: steady state; for AI: Day 5, mean; for Cmax / Tmax / half-life / AUC / concentration at 12 h / concentration at 24 h: human, plasma; for Cmax / Tmax / half-life / AUC: po; for AUC: read-out: AUC12; for concentration at 12 h / concentration at 24 h: read-out: Clast
Method: (§1) A phase I randomized, double-blind, placebo-controlled, adaptive-design, single-ascending dose (SAD) and multiple-ascending dose (MAD) study was conducted in healthy human subjects to evaluate the safety, tolerability, pharmacokinetics (PK), pharmacodynamics (PD), food effect, and optimal oral dose of 3-((1-cyclohexyl-4-oxo-8-(4-oxo-4-phenylbutyl)-1,3,8-triazaspiro[4.5]decan-3-yl)methyl)benzoic acid maleate (hereinafter, “the Maleate Salt”). The SAD phase included an arm to evaluate food effect on the PK of the Maleate Salt. The SAD phase also evaluated the effect of the Maleate Salt on ECG parameters, including an assessment of QT-interval changes using exposure-response analysis.
(§2) The Maleate Salt was formulated in the study as immediate-release, hard gelatin capsules for oral administration. Each capsule contained 5 mg or 25 mg of the Maleate Salt, as well as microcrystalline cellulose NF (AVICEL® PH-102), sodium starch glycolate NF (EXPLOTAB®), and magnesium stearate NF, all filled into a size 3 hard gelatin capsule. A matching placebo containing the same amount of microcrystalline cellulose NF in place of the Maleate Salt was used in the study. The Maleate Salt capsules and matching placebo capsules were packaged in high-density polyethylene (HDPE) bottles with polypropylene caps and stored at controlled conditions per the USP.
(§3) A total of 54 subjects received at least 1 dose of the Maleate Salt, ranging from 5 mg to the maximum single PO dose of 300 mg. Six subjects received a maximum single PO dose of 300 mg and 5 subjects received a total of 900 mg of the Maleate Salt over 5-day period (100 mg BID for 4 days with single 100 mg on Day 5).
The MAD phase had 2 cohorts dosed at 50 and 100 mg of the Maleate Salt. In each cohort, there were 6 active- and 2 placebo-treated subjects. The Maleate Salt was administered to fasting subjects BID (morning and evening) on Days 1 through 4 and as a single morning dose on Day 5.
On Day 1, mean T1/2 was approximately 2 h for both 50 and 100 mg BID doses. On Day 5, mean T1/2 was 11.0 and 6.2 h following 50 and 100 mg BID doses, respectively. For T1/2 determination, the plasma samples for Day 1 were only collected to 12 h, whereas the plasma samples for Day 5 were collected to 24 h.

[2] = Phase I single-ascending dose (SAD) pharmacokinetics incl. food effect, plasma concentration of the Compound; type: in vivo, human; settings: for half-life / AUC(0-inf) / AUC(0-t) / Cmax / Tmax: human, plasma
Method: as §1, §2, §3
The SAD phase had 7 cohorts dosed at 5 mg (cohort 1), 10 mg (cohort 2), 25 mg (cohort 3), 50 mg (cohort 4), 100 mg (cohort 5), 200 mg (cohort 6), and 300 mg (cohort 7) of the Maleate Salt. In each cohort, there were 6 active- and 2 placebo-treated subjects. Subjects were administered the Maleate Salt in the fasting state with 1 exception: subjects in the 25 mg cohort (cohort 3) received the Maleate Salt while fasting and again after a high-fat breakfast to determine food effect on PK.
Mean plasma concentration-time profiles for 3-((1-cyclohexyl-4-oxo-8-(4-oxo-4-phenylbutyl)-1,3,8-triazaspiro[4.5]decan-3-yl)methyl)benzoic acid (hereinafter, “the Compound”) following a single PO dose of the Maleate Salt are shown in FIG. 1.
In evaluating food effect on the PK of the Maleate Salt, subjects on Day 1 in cohort 3 were administered a single dose of the Maleate Salt at 25 mg or placebo in the fasted state. On Day 3, the same subjects received an identical dose 30 minutes after consumption of a standardized, high-fat, high-calorie breakfast.

D2 receptor = molecular target: T1, D2 receptor (Homo sapiens, UniProt P14416); test: Clinical PD: serum prolactin concentration as marker of pharmacologic activity (D2 receptor target engagement); type: in vivo
T1 construct: from tissue; host or cells: healthy human subjects in vivo (lactotroph cells of the anterior pituitary gland)
T1 sequence (P14416 whole entry): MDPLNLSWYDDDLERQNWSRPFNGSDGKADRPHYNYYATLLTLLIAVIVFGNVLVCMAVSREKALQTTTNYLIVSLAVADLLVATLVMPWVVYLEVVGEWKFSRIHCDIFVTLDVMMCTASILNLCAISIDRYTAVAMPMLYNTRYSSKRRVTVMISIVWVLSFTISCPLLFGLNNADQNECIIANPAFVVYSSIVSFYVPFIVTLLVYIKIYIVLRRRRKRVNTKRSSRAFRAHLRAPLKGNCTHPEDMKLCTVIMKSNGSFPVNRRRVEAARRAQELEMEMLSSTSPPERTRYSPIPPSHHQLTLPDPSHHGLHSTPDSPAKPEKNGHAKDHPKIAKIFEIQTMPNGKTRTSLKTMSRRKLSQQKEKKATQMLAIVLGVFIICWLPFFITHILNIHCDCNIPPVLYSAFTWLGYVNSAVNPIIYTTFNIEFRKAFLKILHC
Method: as §1
In the same phase I study, serum prolactin concentrations were evaluated as a marker of pharmacologic activity (D2 receptor target engagement). Prolactin is primarily secreted from lactotroph cells of the anterior pituitary gland, and the release of prolactin from these cells is under inhibitory control by DA. Fitzgerald and Dinan, J. Psychopharmacol. 2008, 22, 12-19.
The increases were substantial compared to placebo. The prolactin response was maximal at the 10 mg dose of the Maleate Salt in the SAD phase.

[3] = po, 5 mg, single PO dose 5 mg, fasted, healthy subjects
[4] = po, 10 mg, single PO dose 10 mg, fasted, healthy subjects
[5] = po, 25 mg, single PO dose 25 mg, fasted, healthy subjects
[6] = po, 25 mg, single PO dose 25 mg, fed (high-fat breakfast), healthy subjects
[7] = po, 50 mg, single PO dose 50 mg, fasted, healthy subjects
[8] = po, 100 mg, single PO dose 100 mg, fasted, healthy subjects
[9] = po, 200 mg, single PO dose 200 mg, fasted, healthy subjects
[10] = po, 300 mg, single PO dose 300 mg, fasted, healthy subjects

O=C(O)c1cccc(CN2CN(C3CCCCC3)C3(CCN(CCCC(=O)c4ccccc4)CC3)C2=O)c1 [Compound 1, 3-((1-cyclohexyl-4-oxo-8-(4-oxo-4-phenylbutyl)-1,3,8-triazaspiro[4.5]decan-3-yl)methyl)benzoic acid]
Plasma concentration-time profile ([1]; MAD phase, 50 or 100 mg BID): rapid absorption and rapid elimination | Plasma concentration-time profile ([2]; single PO dose, over 24 h): rapid absorption and rapid elimination

O=C(O)c1cccc(CN2CN(C3CCCCC3)C3(CCN(CCCC(=O)c4ccccc4)CC3)C2=O)c1 [the Maleate Salt, 3-((1-cyclohexyl-4-oxo-8-(4-oxo-4-phenylbutyl)-1,3,8-triazaspiro[4.5]decan-3-yl)methyl)benzoic acid maleate]
Tlast ([1]; 50 mg BID PO, Day 1): 12.0 h | Tlast ([1]; 50 mg BID PO, Day 5): 24.0 h | Cav, ss ([1]; 50 mg BID PO, Day 5): 4.84 ng/mL | Cmin ([1]; 50 mg BID PO, Day 5): 0.32 ng/mL | Tmin ([1]; 50 mg BID PO, Day 5): 8.0 h | AI ([1]; 50 mg BID PO): 1.89 | Tlast ([1]; 100 mg BID PO, Day 1): 12.0 h | Tlast ([1]; 100 mg BID PO, Day 5): 24.0 h | Cav, ss ([1]; 100 mg BID PO, Day 5): 16.71 ng/mL | Cmin ([1]; 100 mg BID PO, Day 5): 0.65 ng/mL | Tmin ([1]; 100 mg BID PO, Day 5): 4.8 h | AI ([1]; 100 mg BID PO): 1.38 | Accumulation for AUC12 ([1]; 50 or 100 mg BID dosing): less than 30% | Accumulation for Cmax ([1]; 50 or 100 mg BID dosing): less than 40% | Cmax ([1]; 50 mg, 50 mg BID PO, Day 1): 23.3 ng/mL | Tmax ([1]; 50 mg, 50 mg BID PO, Day 1): 1.55 h | half-life ([1]; 50 mg, 50 mg BID PO, Day 1 (samples collected to 12 h)): ~2 h | AUC ([1]; 50 mg, 50 mg BID PO, Day 1): 53.6 ng·h/mL | Cmax ([1]; 50 mg, 50 mg BID PO, Day 5): 31.2 ng/mL | Tmax ([1]; 50 mg, 50 mg BID PO, Day 5): 1.17 h | half-life ([1]; 50 mg, 50 mg BID PO, Day 5 (samples collected to 24 h)): 11 h | AUC ([1]; 50 mg, 50 mg BID PO, Day 5): 58.1 ng·h/mL | Cmax ([1]; 100 mg, 100 mg BID PO, Day 1): 71.5 ng/mL | Tmax ([1]; 100 mg, 100 mg BID PO, Day 1): 1.03 h | half-life ([1]; 100 mg, 100 mg BID PO, Day 1 (samples collected to 12 h)): ~2 h | AUC ([1]; 100 mg, 100 mg BID PO, Day 1): 152 ng·h/mL | Cmax ([1]; 100 mg, 100 mg BID PO, Day 5): 71.6 ng/mL | Tmax ([1]; 100 mg, 100 mg BID PO, Day 5): 1.53 h | half-life ([1]; 100 mg, 100 mg BID PO, Day 5 (samples collected to 24 h)): 6.2 h | AUC ([1]; 100 mg, 100 mg BID PO, Day 5): 200 ng·h/mL | concentration at 12 h ([1]; 50 mg BID PO, Day 1): 0.2 ng/mL | concentration at 24 h ([1]; 50 mg BID PO, Day 5): 0.18 ng/mL | concentration at 12 h ([1]; 100 mg BID PO, Day 1): 0.42 ng/mL | concentration at 24 h ([1]; 100 mg BID PO, Day 5): 0.28 ng/mL | Food effect on Tmax ([2]; 25 mg single dose, high-fat meal prior to dosing vs fasted): did not alter Tmax | Exposure versus dose administered ([2]; SAD phase, fasted conditions, 5-300 mg): approximately proportional to the dose administered | half-life ([2]; oral, across all cohorts in the SAD phase, read-out: Arithmetic mean T1/2 in fasted subjects (converted)): ~4 h | AUC(0-inf) [2, 3]: 4.5 ng·h/mL | AUC(0-t) [2, 3]: 4.3 ng·h/mL | Cmax [2, 3]: 2.1 ng/mL | half-life ([2]; po, 5 mg, single PO dose 5 mg, fasted, healthy subjects, read-out: T1/2 (converted)): ~1.6 h | Tmax ([2]; po, 5 mg, single PO dose 5 mg, fasted, healthy subjects, read-out: Tmax): 0.83 h | AUC(0-inf) [2, 4]: 13.1 ng·h/mL | AUC(0-t) [2, 4]: 12.9 ng·h/mL | Cmax [2, 4]: 6.2 ng/mL | half-life ([2]; po, 10 mg, single PO dose 10 mg, fasted, healthy subjects, read-out: T1/2 (converted)): ~1.6 h | Tmax ([2]; po, 10 mg, single PO dose 10 mg, fasted, healthy subjects, read-out: Tmax): 1.21 h | AUC(0-inf) [2, 5]: 30.4 ng·h/mL | AUC(0-t) [2, 5]: 30.5 ng·h/mL | Cmax [2, 5]: 10.5 ng/mL | half-life ([2]; po, 25 mg, single PO dose 25 mg, fasted, healthy subjects, read-out: T1/2 (converted)): 6 h | Tmax ([2]; po, 25 mg, single PO dose 25 mg, fasted, healthy subjects, read-out: Tmax): 1.8 h | AUC(0-inf) [2, 6]: 17.2 ng·h/mL | AUC(0-t) [2, 6]: 17.6 ng·h/mL | Cmax [2, 6]: 6.7 ng/mL | half-life ([2]; po, 25 mg, single PO dose 25 mg, fed (high-fat breakfast), healthy subjects, read-out: T1/2 (converted)): 7 h | Tmax ([2]; po, 25 mg, single PO dose 25 mg, fed (high-fat breakfast), healthy subjects, read-out: Tmax): 2.2 h | AUC(0-inf) [2, 7]: 56.7 ng·h/mL | AUC(0-t) [2, 7]: 53.2 ng·h/mL | Cmax [2, 7]: 22 ng/mL | half-life ([2]; po, 50 mg, single PO dose 50 mg, fasted, healthy subjects, read-out: T1/2 (converted)): 3.1 h | Tmax ([2]; po, 50 mg, single PO dose 50 mg, fasted, healthy subjects, read-out: Tmax): 1.04 h | AUC(0-inf) [2, 8]: 180 ng·h/mL | AUC(0-t) [2, 8]: 104 ng·h/mL | Cmax [2, 8]: 48.3 ng/mL | half-life ([2]; po, 100 mg, single PO dose 100 mg, fasted, healthy subjects, read-out: T1/2 (converted)): 5.4 h | Tmax ([2]; po, 100 mg, single PO dose 100 mg, fasted, healthy subjects, read-out: Tmax): 1.78 h | AUC(0-inf) [2, 9]: 242 ng·h/mL | AUC(0-t) [2, 9]: 240 ng·h/mL | Cmax [2, 9]: 106 ng/mL | half-life ([2]; po, 200 mg, single PO dose 200 mg, fasted, healthy subjects, read-out: T1/2 (converted)): 5.4 h | Tmax ([2]; po, 200 mg, single PO dose 200 mg, fasted, healthy subjects, read-out: Tmax): 1.24 h | AUC(0-inf) [2, 10]: 446 ng·h/mL | AUC(0-t) [2, 10]: 421 ng·h/mL | Cmax [2, 10]: 192 ng/mL | half-life ([2]; po, 300 mg, single PO dose 300 mg, fasted, healthy subjects, read-out: T1/2 (converted)): 5.1 h | Tmax ([2]; po, 300 mg, single PO dose 300 mg, fasted, healthy subjects, read-out: Tmax): 1.88 h | half-life ([2]; po, 25 to 300 mg dose levels, single PO dose, read-out: Arithmetic mean T1/2 in fasted subjects (converted)): 3.1 to 6 h | Tmax ([2]; po, SAD phase, single PO doses, read-out: Median Tmax): ~1.1 h | Accumulation in serum prolactin (D2 receptor; MAD phase, after BID dosing for 5 days): little if any accumulation | Dose at which the prolactin response was maximal (D2 receptor; SAD phase): 10 mg | Median serum prolactin Tmax (D2 receptor; across all 48 single-dose administrations): approximately 1.1 h | Increases in serum prolactin compared to placebo (D2 receptor; following oral administration): substantial | Serum prolactin concentration (D2 receptor; following oral administration, SAD and MAD phases): increased rapidly
